In US20170190705A1, “Compositions and Methods for Inhibiting BMP” (THE BRIGHAM AND WOMAN'S HOSPITAL, INC., priority 2014, published 2017):
Like-named read-outs stand apart in the source and are kept apart here.

What was measured:
Format in all cases: biochemical
GRK7 = target: T1, GRK7 (Homo sapiens, UniProt Q8WTQ7); assay: Kinome profiling GRK7; details: read-out: Inhibitory activity GRK7; for inhibition at 0.1 µM: 100 nM
T1 sequence (Q8WTQ7 1-553): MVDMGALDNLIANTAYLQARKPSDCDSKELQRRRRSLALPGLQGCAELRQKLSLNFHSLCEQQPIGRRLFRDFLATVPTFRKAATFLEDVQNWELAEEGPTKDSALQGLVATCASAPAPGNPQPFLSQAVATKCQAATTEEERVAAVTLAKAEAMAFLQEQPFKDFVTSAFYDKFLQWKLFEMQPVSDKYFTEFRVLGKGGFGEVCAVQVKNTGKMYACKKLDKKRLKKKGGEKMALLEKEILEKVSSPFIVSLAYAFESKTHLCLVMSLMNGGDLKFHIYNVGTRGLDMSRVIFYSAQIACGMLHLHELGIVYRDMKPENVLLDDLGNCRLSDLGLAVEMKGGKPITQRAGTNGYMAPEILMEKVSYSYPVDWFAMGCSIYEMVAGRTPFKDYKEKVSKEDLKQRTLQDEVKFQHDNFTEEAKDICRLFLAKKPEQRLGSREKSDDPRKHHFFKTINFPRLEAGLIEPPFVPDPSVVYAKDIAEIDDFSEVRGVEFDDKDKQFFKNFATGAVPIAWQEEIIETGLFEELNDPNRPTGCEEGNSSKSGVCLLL
Description: (§1) . The kinome-wide selectivity was determined following the methods previously reported by Mohedas et al., ACS Chem Biol 2013, 8, 1291-1302 and Sanvitale et al., PLoS One 2013, 8, e62721.

NEK7 = NEK7 (Homo sapiens, UniProt Q8TDX7); assay: Kinome profiling NEK7; details: read-out: Inhibitory activity NEK7; for inhibition at 0.1 µM: 100 nM
Chain of NEK7 (Q8TDX7 whole entry): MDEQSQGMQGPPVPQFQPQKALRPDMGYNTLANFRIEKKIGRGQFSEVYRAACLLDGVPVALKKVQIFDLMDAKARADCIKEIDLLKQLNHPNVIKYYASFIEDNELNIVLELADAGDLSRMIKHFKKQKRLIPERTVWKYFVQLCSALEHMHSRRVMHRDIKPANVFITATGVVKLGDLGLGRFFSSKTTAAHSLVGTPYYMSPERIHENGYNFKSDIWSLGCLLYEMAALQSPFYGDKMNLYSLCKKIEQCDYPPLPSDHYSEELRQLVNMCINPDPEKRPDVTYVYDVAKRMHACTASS
Description: as §1

DDR2 = target: T2, DDR2 (Homo sapiens, UniProt Q16832); assay: Kinome profiling DDR2; details: read-out: Inhibitory activity DDR2; for inhibition at 0.1 µM: 100 nM
T2 sequence (Q16832 22-855): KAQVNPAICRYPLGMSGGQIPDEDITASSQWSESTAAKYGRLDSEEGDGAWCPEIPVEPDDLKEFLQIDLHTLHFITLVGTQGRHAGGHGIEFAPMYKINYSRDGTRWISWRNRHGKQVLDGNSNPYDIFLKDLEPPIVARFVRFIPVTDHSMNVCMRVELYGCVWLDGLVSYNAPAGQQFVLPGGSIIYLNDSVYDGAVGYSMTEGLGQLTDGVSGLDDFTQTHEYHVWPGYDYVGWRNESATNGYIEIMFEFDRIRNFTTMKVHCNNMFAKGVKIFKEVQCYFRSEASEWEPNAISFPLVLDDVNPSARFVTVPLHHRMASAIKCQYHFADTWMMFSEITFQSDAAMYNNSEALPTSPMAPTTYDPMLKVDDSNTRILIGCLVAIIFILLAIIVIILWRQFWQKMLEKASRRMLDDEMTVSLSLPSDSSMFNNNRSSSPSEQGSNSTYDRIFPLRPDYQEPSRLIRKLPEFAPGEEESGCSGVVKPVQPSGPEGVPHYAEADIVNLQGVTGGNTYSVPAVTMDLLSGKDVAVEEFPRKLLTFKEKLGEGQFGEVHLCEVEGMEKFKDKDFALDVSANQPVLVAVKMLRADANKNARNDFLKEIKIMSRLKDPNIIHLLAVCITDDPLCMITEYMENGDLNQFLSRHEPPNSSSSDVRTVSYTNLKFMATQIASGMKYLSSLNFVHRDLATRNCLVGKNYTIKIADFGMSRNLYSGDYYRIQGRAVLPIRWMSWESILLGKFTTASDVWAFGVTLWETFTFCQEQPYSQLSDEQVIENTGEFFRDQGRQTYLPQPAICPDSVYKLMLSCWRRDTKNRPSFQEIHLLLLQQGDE
Description: as §1

DAPK1 = DAPK1 (Homo sapiens, UniProt P53355); assay: Kinome profiling DAPK1; details: read-out: Inhibitory activity DAPK1; for inhibition at 0.1 µM: 100 nM
Chain of DAPK1 (P53355 whole entry): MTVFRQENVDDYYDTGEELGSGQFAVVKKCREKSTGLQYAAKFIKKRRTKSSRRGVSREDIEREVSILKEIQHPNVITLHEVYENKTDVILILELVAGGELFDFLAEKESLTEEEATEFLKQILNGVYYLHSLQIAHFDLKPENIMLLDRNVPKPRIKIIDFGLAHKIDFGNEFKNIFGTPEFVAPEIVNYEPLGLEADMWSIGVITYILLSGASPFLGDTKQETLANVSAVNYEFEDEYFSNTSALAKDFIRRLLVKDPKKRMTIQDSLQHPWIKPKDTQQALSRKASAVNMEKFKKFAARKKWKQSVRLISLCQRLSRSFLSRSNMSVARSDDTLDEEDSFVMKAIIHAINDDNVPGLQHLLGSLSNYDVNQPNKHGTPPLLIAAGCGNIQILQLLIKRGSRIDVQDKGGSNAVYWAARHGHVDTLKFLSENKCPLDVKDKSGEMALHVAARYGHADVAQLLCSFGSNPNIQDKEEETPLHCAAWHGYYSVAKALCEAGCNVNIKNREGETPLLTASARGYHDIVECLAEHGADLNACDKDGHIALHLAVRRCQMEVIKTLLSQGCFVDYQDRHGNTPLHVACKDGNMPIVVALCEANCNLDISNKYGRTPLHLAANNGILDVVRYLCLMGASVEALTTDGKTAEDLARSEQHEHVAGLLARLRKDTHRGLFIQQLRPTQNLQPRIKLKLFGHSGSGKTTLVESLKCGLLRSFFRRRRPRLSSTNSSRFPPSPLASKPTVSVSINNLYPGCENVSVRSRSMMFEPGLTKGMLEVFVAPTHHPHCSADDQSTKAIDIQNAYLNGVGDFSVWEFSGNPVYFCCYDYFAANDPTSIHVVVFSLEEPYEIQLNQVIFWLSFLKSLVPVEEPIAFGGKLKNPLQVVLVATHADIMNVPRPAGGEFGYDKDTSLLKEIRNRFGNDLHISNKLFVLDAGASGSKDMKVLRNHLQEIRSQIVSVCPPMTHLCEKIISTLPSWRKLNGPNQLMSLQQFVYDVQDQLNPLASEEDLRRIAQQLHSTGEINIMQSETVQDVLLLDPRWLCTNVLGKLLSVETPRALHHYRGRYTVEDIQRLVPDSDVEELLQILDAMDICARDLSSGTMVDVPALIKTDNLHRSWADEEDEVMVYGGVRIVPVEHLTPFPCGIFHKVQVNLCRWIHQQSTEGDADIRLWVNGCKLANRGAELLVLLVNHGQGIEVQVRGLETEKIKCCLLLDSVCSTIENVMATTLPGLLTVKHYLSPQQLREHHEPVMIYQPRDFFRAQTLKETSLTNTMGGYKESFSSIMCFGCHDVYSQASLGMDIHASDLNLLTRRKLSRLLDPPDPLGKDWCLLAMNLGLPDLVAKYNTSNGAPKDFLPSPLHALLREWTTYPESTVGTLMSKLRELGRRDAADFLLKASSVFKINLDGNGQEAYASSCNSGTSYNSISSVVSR
Description: as §1

MAP4K2 = target: T3, MAP4K2 (Homo sapiens, UniProt Q12851); assay: Kinome profiling MAP4K2; details: for inhibition at 0.1 µM: 100 nM
T3 sequence (Q12851 1-820): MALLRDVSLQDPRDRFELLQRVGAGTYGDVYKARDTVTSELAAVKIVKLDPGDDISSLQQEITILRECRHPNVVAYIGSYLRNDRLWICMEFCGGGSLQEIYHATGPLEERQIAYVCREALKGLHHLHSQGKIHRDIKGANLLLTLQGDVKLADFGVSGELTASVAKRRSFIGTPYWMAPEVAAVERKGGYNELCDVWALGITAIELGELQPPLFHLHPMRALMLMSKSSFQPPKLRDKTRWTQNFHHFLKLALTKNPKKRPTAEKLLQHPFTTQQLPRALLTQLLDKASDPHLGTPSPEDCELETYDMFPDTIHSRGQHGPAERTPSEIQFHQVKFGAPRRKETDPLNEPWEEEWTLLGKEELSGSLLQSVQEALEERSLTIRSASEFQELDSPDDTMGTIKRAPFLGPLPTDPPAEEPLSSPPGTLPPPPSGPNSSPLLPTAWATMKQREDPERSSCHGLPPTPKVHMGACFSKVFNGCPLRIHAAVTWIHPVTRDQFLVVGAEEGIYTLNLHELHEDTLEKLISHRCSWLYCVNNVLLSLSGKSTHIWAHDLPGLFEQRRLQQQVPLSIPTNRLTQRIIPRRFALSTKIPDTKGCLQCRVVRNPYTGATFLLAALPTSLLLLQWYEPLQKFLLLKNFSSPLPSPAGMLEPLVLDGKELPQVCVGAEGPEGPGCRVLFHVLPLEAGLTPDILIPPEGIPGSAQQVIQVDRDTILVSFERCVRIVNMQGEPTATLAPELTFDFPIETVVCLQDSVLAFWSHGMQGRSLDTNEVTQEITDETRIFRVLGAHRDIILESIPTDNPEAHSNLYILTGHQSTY
Description: as §1

ARG (ABL2) = ARG (ABL2) (Homo sapiens, UniProt P42684); assay: Kinome profiling ARG (ABL2); details: for inhibition at 0.1 µM: 100 nM
Chain of ARG (ABL2) (P42684 whole entry): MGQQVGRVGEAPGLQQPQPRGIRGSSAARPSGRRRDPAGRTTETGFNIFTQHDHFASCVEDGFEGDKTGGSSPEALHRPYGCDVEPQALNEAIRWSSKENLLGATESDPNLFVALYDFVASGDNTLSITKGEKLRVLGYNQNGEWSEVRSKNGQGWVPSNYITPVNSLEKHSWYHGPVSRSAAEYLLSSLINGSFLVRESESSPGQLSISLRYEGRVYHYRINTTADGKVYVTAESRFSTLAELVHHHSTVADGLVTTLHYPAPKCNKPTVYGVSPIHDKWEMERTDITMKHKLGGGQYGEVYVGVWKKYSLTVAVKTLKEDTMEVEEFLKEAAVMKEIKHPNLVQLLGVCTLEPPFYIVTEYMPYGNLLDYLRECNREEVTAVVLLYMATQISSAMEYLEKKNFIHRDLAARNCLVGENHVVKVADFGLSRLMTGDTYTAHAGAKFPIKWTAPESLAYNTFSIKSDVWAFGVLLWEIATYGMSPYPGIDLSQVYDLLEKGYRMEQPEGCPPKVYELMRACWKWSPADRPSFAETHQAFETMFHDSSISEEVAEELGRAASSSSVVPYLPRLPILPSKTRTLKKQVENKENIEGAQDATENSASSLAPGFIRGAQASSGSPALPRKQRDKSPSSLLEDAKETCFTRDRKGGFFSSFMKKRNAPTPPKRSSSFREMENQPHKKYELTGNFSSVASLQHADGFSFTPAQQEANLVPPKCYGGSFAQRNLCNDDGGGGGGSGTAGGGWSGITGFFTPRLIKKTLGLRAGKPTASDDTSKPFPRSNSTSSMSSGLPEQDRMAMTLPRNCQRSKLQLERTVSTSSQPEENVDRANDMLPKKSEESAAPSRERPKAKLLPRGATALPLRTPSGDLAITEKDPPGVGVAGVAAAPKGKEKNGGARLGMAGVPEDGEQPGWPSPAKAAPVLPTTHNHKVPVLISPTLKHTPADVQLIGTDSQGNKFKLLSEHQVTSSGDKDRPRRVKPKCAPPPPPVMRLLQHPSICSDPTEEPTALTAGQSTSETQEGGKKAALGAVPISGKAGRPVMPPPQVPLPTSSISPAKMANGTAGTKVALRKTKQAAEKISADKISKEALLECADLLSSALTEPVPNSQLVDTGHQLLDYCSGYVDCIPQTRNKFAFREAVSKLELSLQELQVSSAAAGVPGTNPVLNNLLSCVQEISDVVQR
Description: as §1

PAK2 = PAK2 (Homo sapiens, UniProt Q13177); assay: Kinome profiling PAK2; details: read-out: Inhibitory activity PAK2; for inhibition at 0.1 µM: 100 nM
Chain of PAK2 (Q13177 whole entry): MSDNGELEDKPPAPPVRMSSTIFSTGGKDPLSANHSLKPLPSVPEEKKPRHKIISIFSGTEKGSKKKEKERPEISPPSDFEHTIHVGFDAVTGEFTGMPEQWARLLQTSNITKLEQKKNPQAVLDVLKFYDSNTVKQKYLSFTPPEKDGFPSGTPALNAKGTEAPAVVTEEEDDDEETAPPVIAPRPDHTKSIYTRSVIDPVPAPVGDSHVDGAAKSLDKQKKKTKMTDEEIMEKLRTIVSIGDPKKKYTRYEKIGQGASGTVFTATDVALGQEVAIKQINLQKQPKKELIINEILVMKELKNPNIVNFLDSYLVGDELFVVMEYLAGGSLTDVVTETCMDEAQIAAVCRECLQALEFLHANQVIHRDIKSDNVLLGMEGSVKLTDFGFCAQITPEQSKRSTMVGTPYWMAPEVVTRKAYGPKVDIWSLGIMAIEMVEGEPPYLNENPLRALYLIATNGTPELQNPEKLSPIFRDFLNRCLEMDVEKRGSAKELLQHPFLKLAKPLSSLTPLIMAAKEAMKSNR
Description: as §1

[1] = Table 4, read-out: Inhibitory Activity MAP4K2
[2] = read-out: Inhibitory activity MAP4K2
[3] = Table 4, read-out: Inhibitory Activity ARG
[4] = read-out: Inhibitory activity ARG (ABL2)

Compound	inhibition at 0.1 µM (GRK7)	inhibition at 1 µM (GRK7)	inhibition at 0.1 µM (NEK7)	inhibition at 1 µM (NEK7)	inhibition at 0.1 µM (DDR2)	inhibition at 1 µM (DDR2)	inhibition at 0.1 µM (DAPK1)	inhibition at 1 µM (DAPK1)	inhibition at 0.1 µM (MAP4K2; [1])	inhibition at 0.1 µM (MAP4K2; [2])	inhibition at 1 µM (MAP4K2; [1])	inhibition at 1 µM (MAP4K2; [2])	inhibition at 0.1 µM (ARG (ABL2); [3])	inhibition at 0.1 µM (ARG (ABL2); [4])	inhibition at 1 µM (ARG (ABL2); [3])	inhibition at 1 µM (ARG (ABL2); [4])	inhibition at 0.1 µM (PAK2)	inhibition at 1 µM (PAK2)
COc1cc(-c2cc(-c3ccc(N4CCNCC4)cc3)cnc2C)cc(OC)c1OC [Compound 10, 1-(4-(6-methyl-5-(3,4,5-trimethoxyphenyl)pyridin-3-yl)phenyl)piperazine]	3%	4%	4%	3%	-1%	20%	-1%	-1%	16%	16%	61%	61%	17%	17%	62%	62%	0%	1%
COc1cc(-c2cc(-c3ccc(N4CCNCC4)cc3)cnc2N)cc(OC)c1OC [Compound 15, 5-(4-(piperazin-1-yl)phenyl)-3-(3,4,5-trimethoxyphenyl)pyridin-2-amine]	2%	0%	9%	2%	32%	86%	1%	0%		36%		77%		60%		81%	0%	1%
